Patent publication US20220323487A1, “METERED DOSE FOR DEMODEX AND DISORDERS RELATED THERETO” (Azura Ophthalmics Ltd., priority 2019, published 2022)

Legend:
[1] = rabbit, in vivo; cited from earlier work
[2] = remark: listed apart in the source
Description: The composition is prepared by the combination of selenium disulfide (SeS2) in combination with Petrolatum base (and in the absence of surface acting agents). Compositions comprising various concentrations of selenium disulfide are prepared, such as 0.1 wt. %, 0.5 wt. %, 1 wt. %, 1.5 wt. %, 2 wt. %, and 2.5 wt. %.
Various compositions prepared as described above are administered to the eye or eyelid (e.g., margin thereof) of albino rabbits. Various compositions are administered to distinct cohorts using various treatment protocols, such as based on frequency of administration (e.g., once daily, twice daily, every other day, and once weekly) and volume of administration (e.g., <25 μL, […] per administration). Compositions lacking selenium disulfide are administered to a separate cohort to establish a control.
Albino rabbits are evaluated, and an accurate volume of the composition is ejected from a device (e.g., micropipette) and is delivered to the lower eyelid of the rabbits. In one example, the volume is ˜25 μL (equivalent to 20 mg in weight). The rabbits are examined daily.
2.5% SeS2 at a dosing volume of 25 μL is administered to the animals.
Therefore, a reduced dose of 5 μL (equivalent to 4 mg) is placed on the lid of the rabbits.

[3] = tested on: Demodex folliculorum mites; experiment: In vitro assessment of anti-demodectic properties: viability of Demodex mites on epilated eyelashes; settings: SeS2 4%
[4] = cited from earlier work
[5] = rabbit, in vivo
From the text: On a subsequent study to Example 6, concentrations ranging from 0.5 wt. % to 2.5 wt. % were used on New-Zealand rabbits, once daily to twice weekly for 28 days.

[6] = in vivo; cited from earlier work
[7] = 25 μL (20 mg) of 2.5% SeS2 with petrolatum, lower eyelid of right eye

S=[Se]=S [SeS2, selenium disulfide]
time to onset of ocular effects after application [1]: ≤ 2 h | finding on clinical examination [7]: keratitis is observed with multiple punctate over the center exposed part of the cornea | time to reported pain [7]: About 4 hours | time to resolution of keratitis (treated with lubricants and local NSAID): ≤ 48 h | clinical or microscopic findings ([2]; 0.5%, 1.0% or 2.5%, twice weekly or once daily, dose volume 5 μL, summary, species not stated): no clinical or microscopic findings | keratitis, including red and swollen eyelids, animals affected ([2]; rabbit, in vivo): all animals | ocular effects at reduced dose ([2]; rabbit, in vivo): no evidence for any of the effects | death of the mites [3]: caused death of the mites | tolerability of ointment on the lids ([4]; 0.5 percent ointment, all patients complained of burning of the conjunctiva (Rychener)): too strong | epithelial keratitis ([4]; human, in vivo): 6 cases | keratitis, conjunctivitis with erythematous and swollen lids ([4]; human, in vivo): Two | ophthalmic observations versus previous study [5]: safer | irritancy to rabbit dermis [6]: did not appear to be irritant
